From patent publication US20180339016A1 (priority 2015, published 2018)
Where two headings read alike, the source gives them in different places.

Tests used:
[1] = system: Escherichia coli (ATCC 25922); settings: peptide alone; peptide concentration required to inhibit growth by 20% (so in the source)
Method: (§1) The N-terminus of the peptides were acetylated and the C-terminus was amidated. The kinked structure can rapidly reduce the alpha-helical content, thereby greatly reducing the toxicity of the peptide against host cells. In addition, because of the potential to show specificity for the Gram-negative bacterial membrane, Pro-mutants were prepared by site-directed mutagenesis. Using the prepared peptides, their MIC for the Gram-negative bacterium E. coli and the Gram-positive bacterium S. aureus and their hemolytic activity for host cells were examined (Table 1).
(§2) To measure the synergy between the membrane-activating peptides and the repositioning drug, a 10× compound was prepared, and then serially diluted ⅔-fold with distilled water. An MH broth (900 μl) was added to and mixed with the 10× compound (100 μl), and then 200 μL of the mixture was taken and added to a 96-well plate. E. coli cultured for one day was adjusted to 0.5 MCF using MCFarland, and diluted 10-fold, and then 10 μl of the dilution was added to each well of the plate (5×10^5 CFU/mL). After addition of the bacterial cells, plate was incubated at 37° C. for 18 hours, and then the OD value at UV-Vis (600 nm) was measured. Cell viability (%)=(OD600 of sample−OD600 of negative control)/(OD600 of positive control−OD600 of negative control)×100.

[2] = system: E. coli ATCC 25922
[3] = system: E. coli ATCC 25922; test: Antibiotic interaction assay (Wimley), 2/3 broth microdilution: MIC alone, MIC of combination, FICI; assay type: cell-based; settings: for MIC of combination (μM): antibiotic (colistin): colistin concentration in combination with labelled peptide; for MIC of peptide: peptide alone
Method: Synergy was evaluated by an antibiotic interaction assay (Wimley, 2015) Using the method of Wimley (BBA, 2015, v. 1848(1), pp. 8-15), synergy between the membrane-activating peptide and an antibiotic was measured by an FICI value (FIG. 17). […] Thus, to accurately examine synergy, a ⅔ dilution method which observes MIC at denser concentration intervals is advantageous over a ½ dilution method in statistical terms. […] In the same manner, the MIC of an antibiotic or repositioning drug (second line) is measured. In the third line, the two compounds are mixed after putting half amount each, and the MIC thereof is measured.
A broth microdilution technique (⅔ dilution) was used together with an MH broth. E. coli treated with an antibiotic and the peptide was incubated in a 37° C. incubator for 18 hours.
as §2

[4] = system: Staphylococcus aureus (ATCC 29213); test: MIC of peptide against S. aureus; assay type: cell-based; settings: peptide alone
Method: as §1

[5] = labelled peptide + colistin + linezolid
[6] = peptide concentration in combination with colistin
[7] = three compounds: labelled peptide + colistin + linezolid
[8] = Table 13, Lys-Ala scanning library

Substance: KLLKLLKKPLKLAK [KL-L9PL13A]
- MIC [μM] Against E. coli [1]: 40 µM
- increase of FICI value with colistin when peptide changed from 1/4 MIC to 1/2 MIC [2]: 0.29
- FICI Against E. coli, Colistin & 1/2 MIC peptide ([2]; Table 15, Leu-Ala scanning): 0.80
- FICI Against E. coli, Colistin & 1/4 MIC peptide ([2]; Table 15, Leu-Ala scanning): 0.51

Substance: KLLKLLKCLLKCLK [8, 12 kink]
- MIC [μM] Against E. coli [1]: 1.1 µM
- MIC of combination (μM): antibiotic (colistin) [3]: 0.065 µM
- FICI of peptide with colistin ([3]; labelled peptide + colistin): 0.86
- FICIPeptide ([3]; labelled peptide + colistin): 0.56
- FICIcolistin / FICIantibiotic ([3]; labelled peptide + colistin): 0.30
- FICI of peptide with colistin and linezolid [3, 5]: 1.1
- FICIPeptide [3, 5]: 0.42
- FICIcolistin [3, 5]: 0.29
- FICIlinezolid [3, 5]: 0.37
- MIC of peptide [3]: 1.1 µM
- MIC of combination (μM): peptide [3, 6]: 0.59 µM
- MIC of combination (μM): colistin [3, 7]: 0.065 µM
- MIC of combination (μM): linezolid [3, 7]: 22 µM
- MIC of combination (μM): peptide [3, 7]: 0.44 µM

Substance: KLLKPLKKLLKLLK [KL-L5P]
- MIC [μM] Against E. coli [1]: 5.0 µM
- MIC [μM] Against S. aureus [4]: 20 µM

Substance: KLLKLLKPLLKLLK [KL-K8P]
- MIC [μM] Against E. coli [1]: 2.5 µM
- MIC [μM] Against S. aureus [4]: 5.0 µM

Substance: LKKLPKLLKKLLKL [LK-L5P]
- MIC [μM] Against E. coli [1]: 5.0 µM
- MIC [μM] Against S. aureus [4]: 20 µM

Substance: LKKLLKLLKKPPKL [LK-L11PL12P]
- MIC [μM] Against E. coli [1]: 2.5 µM
- MIC [μM] Against S. aureus [4]: >40 µM

Substance: ALLKLLKKPLKLLK [KL-L9P/K1A]
- FICI Against E. coli, Colistin & 1/2 MIC peptide [2, 8]: 0.71

Substance: KLLKLLKKLLKLLK
- MIC [μM] Against E. coli [1]: 20 µM
- MIC [μM] Against S. aureus [4]: 20 µM

Substance: KPLKLLKKLLKLLK [KL-L2P]
- MIC [μM] Against E. coli [1]: 5 µM
- MIC [μM] Against S. aureus [4]: 20 µM

Substance: KLLKLLPKLLKLLK [KL-K7P]
- MIC [μM] Against E. coli [1]: 2.5 µM
- MIC [μM] Against S. aureus [4]: 5.0 µM

Substance: LKKLLKLPKKPLKL [LK-L8PL11P]
- MIC [μM] Against E. coli [1]: 40 µM
- MIC [μM] Against S. aureus [4]: >40 µM

Substance: LKKLPKLPKKLLKL [LK-L5PL8P]
- MIC [μM] Against E. coli [1]: 20 µM
- MIC [μM] Against S. aureus [4]: >40 µM

Substance: KLLKLLKKLLKLPK [KL-L13P]
- MIC [μM] Against E. coli [1]: 5 µM
- MIC [μM] Against S. aureus [4]: 10 µM

Substance: LKKPLKLLKKPLKL [LK-L4PL11P]
- MIC [μM] Against E. coli [1]: >40 µM
- MIC [μM] Against S. aureus [4]: >40 µM

Substance: KLLKLLKKDLKLLK [KL L9D]
- MIC [μM] Against E. coli [1]: 20 µM
- MIC of combination (μM): antibiotic (colistin) [3]: 0.09 µM
- FICI of peptide with colistin ([3]; labelled peptide + colistin): 0.46
- FICIPeptide ([3]; labelled peptide + colistin): 0.28
- FICIcolistin / FICIantibiotic ([3]; labelled peptide + colistin): 0.18
- FICI of peptide with simvastatin ([3]; labelled peptide + simvastatin): 0.61
- FICIPeptide ([3]; labelled peptide + simvastatin): 0.5
- FICIsimvastatin ([3]; labelled peptide + simvastatin): 0.11
- MIC of peptide [3]: 18 µM
- MIC of combination (μM): peptide [3, 6]: 5 µM
- MIC of combination (μM): peptide ([3]; peptide concentration in combination with simvastatin): 9 µM
- MIC of combination (μM): simvastatin ([3]; simvastatin concentration in combination with labelled peptide): 83.33 µM

Substance: KLLKLLCKLCKLLK [7, 10 kink]
- MIC [μM] Against E. coli [1]: 1.1 µM
- MIC of combination (μM): antibiotic (colistin) [3]: 0.081 µM
- FICI of peptide with colistin ([3]; labelled peptide + colistin): 0.89
- FICIPeptide ([3]; labelled peptide + colistin): 0.58
- FICIcolistin / FICIantibiotic ([3]; labelled peptide + colistin): 0.31
- FICI of peptide with colistin and linezolid [3, 5]: 1.1
- FICIPeptide [3, 5]: 0.37
- FICIcolistin [3, 5]: 0.33
- FICIlinezolid [3, 5]: 0.37
- MIC of peptide [3]: 1.1 µM
- MIC of combination (μM): peptide [3, 6]: 0.63 µM
- MIC of combination (μM): colistin [3, 7]: 0.081 µM
- MIC of combination (μM): linezolid [3, 7]: 22 µM
- MIC of combination (μM): peptide [3, 7]: 0.44 µM

Substance: LKKPLKLPKKLLKL [LK-L4PL8P]
- MIC [μM] Against E. coli [1]: 40 µM
- MIC [μM] Against S. aureus [4]: >40 µM

Substance: LKKLLKPLKKLLKL [LK-L7P]
- MIC [μM] Against E. coli [1]: 2.5 µM
- MIC [μM] Against S. aureus [4]: 20 µM

Substance: KLAKLLKKPLKLLK [KL-L3AL9P]
- MIC [μM] Against E. coli [1]: 27 µM
- FICI Against E. coli, Colistin & 1/2 MIC peptide ([2]; Table 15, Leu-Ala scanning): 0.70
- FICI Against E. coli, Colistin & 1/4 MIC peptide ([2]; Table 15, Leu-Ala scanning): 0.55

Substance: KLLALLKKPLKLLK [KL-L9P/K4A]
- FICI Against E. coli, Colistin & 1/2 MIC peptide [2, 8]: 0.79

Substance: KALKLLKKPLKLLK [KL-L2AL9P]
- MIC [μM] Against E. coli [1]: 40 µM
- FICI Against E. coli, Colistin & 1/2 MIC peptide ([2]; Table 15, Leu-Ala scanning): 0.74
- FICI Against E. coli, Colistin & 1/4 MIC peptide ([2]; Table 15, Leu-Ala scanning): 0.61

Substance: KLLKLLKKLLKPLK [KL-L12P]
- MIC [μM] Against E. coli [1]: 2.5 µM
- MIC [μM] Against S. aureus [4]: 20 µM

Substance: KLLKLLAKPLKLLK [KL-L9P/K7A]
- FICI Against E. coli, Colistin & 1/2 MIC peptide [2, 8]: 0.86

Substance: LKKLPKLLKKPLKL [LK-L5PL11P]
- MIC [μM] Against E. coli [1]: 40 µM
- MIC [μM] Against S. aureus [4]: >40 µM

Substance: LKKLLKLLKPLLKL [LK-K10P]
- MIC [μM] Against E. coli [1]: 5.0 µM
- MIC [μM] Against S. aureus [4]: 5.0 µM

Substance: Ac-KLLKALKKPLKLLK-NH2 [KL-L5AL9P]
- MIC [μM] Against E. coli [1]: 18 µM
- increase of FICI value with colistin when peptide changed from 1/4 MIC to 1/2 MIC [2]: 0.37
- FICI Against E. coli, Colistin & 1/2 MIC peptide ([2]; Table 15, Leu-Ala scanning): 0.86
- FICI Against E. coli, Colistin & 1/4 MIC peptide ([2]; Table 15, Leu-Ala scanning): 0.49

Substance: KLLKLLKAPLKLLK [KL-L9P/K8A]
- FICI Against E. coli, Colistin & 1/2 MIC peptide [2, 8]: 0.97

Substance: LKKLLKPLKKPLKL [LK-L7PL11P]
- MIC [μM] Against E. coli [1]: 20 µM
- MIC [μM] Against S. aureus [4]: >40 µM

Substance: KLLKLLKKPLKLLA [KL-L9P/K14A]
- FICI Against E. coli, Colistin & 1/2 MIC peptide [2, 8]: 0.66

Substance: KLR8KLLKKPLS5LLK [st 3, 11]
- MIC [μM] Against E. coli [1]: 2.5 µM
- MIC of combination (μM): antibiotic (colistin) [3]: 0.12 µM
- FICI of peptide with colistin ([3]; labelled peptide + colistin): 0.86
- FICIPeptide ([3]; labelled peptide + colistin): 0.59
- FICIcolistin / FICIantibiotic ([3]; labelled peptide + colistin): 0.27
- FICI of peptide with colistin and linezolid [3, 5]: 0.70
- FICIPeptide [3, 5]: 0.11
- FICIcolistin [3, 5]: 0.25
- FICIlinezolid [3, 5]: 0.33
- MIC of peptide [3]: 2.5 µM
- MIC of combination (μM): peptide [3, 6]: 0.61 µM
- MIC of combination (μM): colistin [3, 7]: 0.060 µM
- MIC of combination (μM): linezolid [3, 7]: 15 µM
- MIC of combination (μM): peptide [3, 7]: 0.30 µM

Substance: KLLKLLKKPAKLLK [KL-L9PL10A]
- MIC [μM] Against E. coli [1]: 40 µM
- increase of FICI value with colistin when peptide changed from 1/4 MIC to 1/2 MIC [2]: 0.31
- FICI Against E. coli, Colistin & 1/2 MIC peptide ([2]; Table 15, Leu-Ala scanning): 0.80
- FICI Against E. coli, Colistin & 1/4 MIC peptide ([2]; Table 15, Leu-Ala scanning): 0.49

Substance: KLLKLLKKPLALLK [KL-L9P/K11A]
- FICI Against E. coli, Colistin & 1/2 MIC peptide [2, 8]: 1.25

Substance: KLLKLLKKPLKALK [KL-L9PL12A]
- MIC [μM] Against E. coli [1]: 40 µM
- FICI Against E. coli, Colistin & 1/2 MIC peptide ([2]; Table 15, Leu-Ala scanning): 0.74
- FICI Against E. coli, Colistin & 1/4 MIC peptide ([2]; Table 15, Leu-Ala scanning): 0.61
